Laboratory results: US9850133B2, “Green synthesis of reduced graphene oxide using Nigella sativa seed extract” (KING SAUD UNIVERSITY, priority 2016, dated 2017)

Key:
Test in all cases: Agar well diffusion assay, zone of inhibition
Assay type in all cases: cell-based
Details in all cases: samples at 100 μl, beyond the well diameter of 6 mm, mean±S.D.
[1] = tested on: Aspergillus fumigatus (RCMB 02567)
Method: (§1) Antimicrobial activity of the reduced graphene oxide (rGO) nanoparticles was determined using the agar well diffusion assay method as described by Holder and Boyce, 1994. Three bacterial strains (two gram positive and one gram negative) and one yeast strain, namely, Bacillis subtilis (RCMB 010067), Staphylococcus pneumoniae (RCMB 010011), Escherichia coli (RCMB 010052), and Aspergillus fumigatus (RCMB 02568) were used for the antimicrobial assay.
(§2) The tested organisms were sub-cultured on nutrient agar medium (Oxoid laboratories, UK) for bacteria and Sabouraud dextrose agar (Oxoid laboratories, UK) for fungi. Ampicillin and Gentamicin were used as positive control for gram positive and gram negative bacteria, respectively, while Amphotericin B was used for fungi. The plates were done in triplicates. Bacterial cultures were incubated at 37° C. for 24 h, while the fungal cultures were incubated at 25-30° C. for 3-7 days. Antimicrobial activity was determined by measuring the zone of inhibition [A. Agwa, (2000)]. Samples were tested at a concentration of 100 μl; Data are expressed in the form of (M±S.D.): mean±standard deviation; Diameter of the inhibition zone (mm) beyond the well diameter of 6 mm; NT: not tested; NA: no activity.

[2] = tested on: Candida albicans (RCMB 05038)
[3] = tested on: Streptococcus pneumoniae (RCMB 010011)
Method: as §1, §2

[4] = tested on: Bacillis subtilis (RCMB 010068)
Method: as §1, §2

[5] = tested on: Escherichia coli (RCMB 010054)
Method: as §1, §2

[6] = tested on: Pseudomonas aeruginosa (RCMB 010045)

In the case of `C[C@@H]1[C@H](O)[C@@H](C)/C=C/C=C/C=C/C=C/C=C/C=C/C=C/[C@H](O[C@@H]2O[C@H](C)[C@@H](O)[C@H](N)[C@@H]2O)C[C@@H]2O[C@](O)(C[C@@H](O)C[C@@H](O)[C@H](O)CC[C@@H](O)C[C@@H](O)CC(=O)O[C@H]1C)C[C@H](O)[C@H]2C(=O)O` [Amphotericin B], the “Diameter of the inhibition zone” value [1] is reported as 21.7 ± 1.5 mm and the “Diameter of the inhibition zone” value [2] is reported as 22.7 ± 1.5 mm.

For `CC1(C)S[C@@H]2[C@H](NC(=O)[C@H](N)c3ccccc3)C(=O)N2[C@H]1C(=O)O` [Ampicillin], the “Diameter of the inhibition zone” value [3] was 21.0 ± 1.0 mm and the “Diameter of the inhibition zone” value [4] was 31.3 ± 1.5 mm.

In the case of Gentamicin, the “Diameter of the inhibition zone” value [5] is reported as 20.3 ± 0.58 mm and the “Diameter of the inhibition zone” value [6] is reported as 16.0 ± 1.0 mm.
